Molecules are shown by their SMILES. Read-outs that look alike come from different tables or passages of the source. Where only a bound is given, the exact number is not on record here.

A word on the IC50: it is the concentration that gives 50% inhibition. One may read the AC50 as the concentration giving half of the maximal activity seen. As a reminder, the GI50 is the concentration giving 50% growth inhibition.

Holding throughout (format): cell-based
One test has as its system SMN2 mRNA. The test can be described thus: Gene panel canonical junction qPCR assay, decrease in CJ mRNA, Table 3. A digest of the protocol: (§1)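 IC50 denotes the concentration giving 50% decrease in canonical-junction mRNA, fitted by 4-parameter logistic to percentage response derived from ΔΔCt versus housekeeping gene and DMSO control. Cells (A673 or K562) exposed 24 h to 11-point 3-fold serial dilutions from 10 uM top, DMSO ≤0.25%; junction-spanning primer/probe qPCR.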
For orientation: In qPCR the cycle at which signal appears reflects the starting amount.

Test [1] concerns HTT mRNA. The test is described as above. In a few lines:
as §1

The test system of test [2] is MYB mRNA. Described as above. A digest of the protocol: as §1
Test [3] concerns HTT mRNA. As to the kind of experiment: Splicing RT-qPCR assay (THP), Table 2A.
Test [4] relates to MYB mRNA. The test can be described thus: Splicing RT-qPCR assay (THP), Table 2A.
The subject of test [5] is SH-SY5Y (human neuroblastoma) cells. The test can be described thus: Cell viability, Cell Titer Glo 2.0 assay. The conditions noted are these: read-out: Viability SHSY5Y.3 GI50. In a few lines: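 Viability was read by CellTiter-Glo 2.0 luminescence after a 72-hour compound exposure at 37° C. under 5% CO2. Cells were in IMDM plus 10% FBS containing 0.1% DMSO, and medium-only wells gave the blank.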
(Cellular ATP, detected with luciferase, serves as a proxy for viable cell number.)

The mark [6] stands for this setting: decrease in canonical junction (CJ) mRNA, gene panel qPCR, Table 3.
[7] abbreviates: decrease in CJ mRNA levels, canonical junction qPCR, gene panel.
Where [8] appears, read: Table 2A, THP, HTT alternative junction (AJ) mRNA, read-out: HTT AJ (AC50, increase in alternative junction mRNA).
Where [9] appears, read: Table 2A, THP, HTT canonical junction (CJ) mRNA, read-out: HTT CJ (IC50, decrease in canonical junction mRNA).
Where [10] appears, read: Table 2A, THP, MYB alternative junction (AJ) mRNA, read-out: MYB AJ (AC50, increase in alternative junction mRNA).
Where [11] appears, read: Table 2A, THP, MYB canonical junction (CJ) mRNA, read-out: MYB CJ (IC50, decrease in canonical junction mRNA).

As to `Cc1cn2cc(NC(=O)c3ccc(N4CCC(NC5CC5)CC4)c4cn(C)nc34)nc2c(C)n1` [Compound 297, 4-[4-(cyclopropylamino)-1-piperidyl]-N-(6,8-dimethylimidazo[1,2-a]pyrazin-2-yl)-2-methyl-indazole-7-carboxamide], the concentration for half-maximal inhibition (IC50) with SMN2 mRNA (setting [6]) is below 0.1 µM; in the test with HTT mRNA [1] (setting [6]), above 10 µM; in the test with MYB mRNA [2] (setting [6]), 0.1 to 1 µM; in the test on HTT mRNA [3] (Table 2A (THP), CJ mRNA decrease, read-out: HTT CJ (decrease in canonical junction mRNA, IC50)), above 10 µM; in the test with MYB mRNA [4] (Table 2A (THP), CJ mRNA decrease, read-out: MYB CJ (decrease in canonical junction mRNA, IC50)), 1 to 10 µM. The AC50 is above 10 µM with HTT mRNA [3] (Table 2A (THP), AJ mRNA increase, read-out: HTT AJ (increase in alternative junction mRNA, AC50)) and 0.1 to 1 µM in the test on MYB mRNA [4] (Table 2A (THP), AJ mRNA increase, read-out: MYB AJ (increase in alternative junction mRNA, AC50)). Besides, in test [5], the concentration for 50% growth inhibition (GI50) is 1 to 10 µM.

Regarding `COc1c(NC(=O)c2ncc(N3CCNCC3)c3cn[nH]c23)cn2cc(C)nc2c1F` [Compound 606, N-(8-fluoro-7-methoxy-2-methyl-imidazo[1,2-a]pyridin-6-yl)-4-piperazin-1-yl-1H-pyrazolo[3,4-c]pyridine-7-carboxamide], the IC50 with SMN2 mRNA (setting [7]) is 0.1 to 1 µM; in the test on HTT mRNA [1] (setting [7]) it was above 10 µM; in the test on MYB mRNA [2] (setting [7]), above 10 µM; in the test on HTT mRNA [3] (setting [9]) it was above 10 µM; in the test on MYB mRNA [4] (setting [11]), 1 to 10 µM. Besides, the values for the half-maximal activity concentration (AC50) in the test with HTT mRNA [3] (setting [8]) and in the test on MYB mRNA [4] (setting [10]) were above 10 µM and 1 to 10 µM, respectively. The 50% growth inhibitory concentration (GI50) in test [5] fell in the range of 0.1 to 1 µM.

On to `COc1c(NC(=O)c2c(F)cc(N3CCNCC3)c3cn[nH]c23)cn2cc(C)nc2c1F` [Compound 607, 6-fluoro-N-(8-fluoro-7-methoxy-2-methyl-imidazo[1,2-a]pyridin-6-yl)-4-piperazin-1-yl-1H-indazole-7-carboxamide], for which the IC50 in the test with SMN2 mRNA (setting [7]) was below 0.1 µM; with HTT mRNA [1] (setting [7]) it was 0.1 to 1 µM; with MYB mRNA [2] (setting [7]) it was below 0.1 µM; in the test with HTT mRNA [3] (setting [9]), 0.1 to 1 µM; with MYB mRNA [4] (setting [11]), below 0.1 µM. The concentration at half-maximal activity (AC50) is 1 to 10 µM in the test with HTT mRNA [3] (setting [8]) and below 0.1 µM with MYB mRNA [4] (setting [10]). For the same molecule, the concentration for 50% growth inhibition (GI50) in test [5] was in the range of 0.1 to 1 µM.

Take `Cc1cn2cc(NC(=O)c3ccc(N4C[C@@H](C)N[C@@H](C)C4)c4c3nnn4C)cc(F)c2n1` [Compound 635]: the IC50 is below 0.1 µM in the test on SMN2 mRNA (setting [7]); 1 to 10 µM with HTT mRNA [1] (setting [7]); 0.1 to 1 µM with MYB mRNA [2] (setting [7]); 1 to 10 µM in the test on HTT mRNA [3] (setting [9]); 0.1 to 1 µM in the test with MYB mRNA [4] (setting [11]). The half-maximal activity concentration (AC50) was 1 to 10 µM in the test on HTT mRNA [3] (setting [8]) and 0.1 to 1 µM with MYB mRNA [4] (setting [10]). Moreover, the concentration for 50% growth inhibition (GI50) in test [5] is 1 to 10 µM.

The record behind these values is patent US20260285853A1, “COMPOUNDS AND METHODS FOR MODULATING SPLICING” (REMIX THERAPEUTICS INC., priority 2023, published 2026).
